Among the data in PubChem BioAssay (NCI) are TGI and GI50 values, retold here.

Structures are written as SMILES.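 Grown in 96-well plates, cells were treated for 48 hours with each compound at five concentrations. Insufficient inhibition: endpoint recorded as highest concentration tested. The concentration for 50% growth inhibition is given as GI50. TGI denotes the concentration required for complete inhibition of growth.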 Where only a bound is given, the exact number is not on record here.

Among the test systems are A549 NSCLC; CCRF-CEM leukemia; COLO 205 colon; MDA-MB-435; NCI-H226 lung; OVCAR-5 ovarian; SK-OV-3 ovarian; SN12C renal; SNB-19 CNS; UACC-62 melanoma.
Common to all, as to test: NCI tumour cell line growth inhibition, 48 h

Regarding `CC(C)(C)CNCCO`, the TGI in the assay with A549 NSCLC, with CCRF-CEM leukemia, in the assay with COLO 205 colon, in the assay with MDA-MB-435, in the assay with NCI-H226 lung and with OVCAR-5 ovarian was greater than 100 µM each time. In addition, the TGI in the assay with SK-OV-3 ovarian, with SN12C renal, in the assay on SNB-19 CNS and with UACC-62 melanoma was greater than 100 µM in each case.
As to `C/C(=C1\C(=O)Nc2ccccc21)c1cccc(/C(C)=C2/C(=O)Nc3ccccc32)n1`, the GI50 with A549 NSCLC is 7.38 µM; in the assay on CCRF-CEM leukemia, 6.55 µM; with COLO 205 colon, 7.32 µM; in the assay with MDA-MB-435, 2.57 µM; with NCI-H226 lung, 4.53 µM; in the assay on OVCAR-5 ovarian it was 48.4 µM. Moreover, the GI50 in the assay on SK-OV-3 ovarian is 26.2 µM; in the assay on SN12C renal, 15.6 µM; with SNB-19 CNS, 23.1 µM; in the assay with UACC-62 melanoma, 4.56 µM. In addition, the TGI is greater than 100 µM in the assay with A549 NSCLC; greater than 100 µM with CCRF-CEM leukemia; greater than 100 µM with COLO 205 colon; 13.4 µM in the assay with MDA-MB-435; 24.5 µM with NCI-H226 lung; greater than 100 µM in the assay with OVCAR-5 ovarian. Further, the TGI in the assay on SK-OV-3 ovarian is greater than 100 µM; with SN12C renal, 54.7 µM; with SNB-19 CNS, greater than 100 µM; in the assay with UACC-62 melanoma, 23.2 µM.
Take `CCCCCCCCCCCC1=NC(C)(C)CN1C(C)C`: the GI50 in the assay on A549 NSCLC is 3.71 µM; with CCRF-CEM leukemia, 2.7 µM; in the assay with COLO 205 colon, 1.77 µM; in the assay on MDA-MB-435 it was 2 µM; with NCI-H226 lung, 6.16 µM; with OVCAR-5 ovarian, 4.14 µM. Also, the GI50 in the assay on SK-OV-3 ovarian is 7.51 µM; in the assay on SN12C renal, 4.04 µM; in the assay with SNB-19 CNS, 11.3 µM; in the assay with UACC-62 melanoma, 1.75 µM. Further, the TGI is 14.6 µM in the assay on A549 NSCLC; 10.1 µM with CCRF-CEM leukemia; 3.15 µM with COLO 205 colon; 5.33 µM with MDA-MB-435; 22 µM in the assay on NCI-H226 lung; 16.1 µM in the assay on OVCAR-5 ovarian. Besides, the TGI in the assay with SK-OV-3 ovarian was found to be 20 µM; in the assay on SN12C renal, 16.7 µM; with SNB-19 CNS, 23.4 µM; in the assay on UACC-62 melanoma, 3.54 µM.
With `CC(C)CC(NC(=O)C(O)C(N)Cc1ccccc1)C(=O)O` (centres undefined), the TGI in the assay with A549 NSCLC, with CCRF-CEM leukemia, in the assay on COLO 205 colon, in the assay with MDA-MB-435, in the assay on NCI-H226 lung and with OVCAR-5 ovarian was greater than 100 µM in each case. Further, the TGI with SK-OV-3 ovarian, in the assay on SN12C renal, with SNB-19 CNS and in the assay with UACC-62 melanoma was greater than 100 µM in each case.
For the compound `C[C@]12CC[C@H]3[C@@H](CCC4=CC(=O)CC[C@@]43C)[C@]1(O)CC[C@]2(O)C(=O)CO`, the TGI in the assay with A549 NSCLC, in the assay on CCRF-CEM leukemia, with COLO 205 colon, in the assay with MDA-MB-435, in the assay with NCI-H226 lung and in the assay on OVCAR-5 ovarian was greater than 100 µM in each case. For the same compound, the TGI in the assay with SK-OV-3 ovarian, in the assay with SN12C renal, in the assay on SNB-19 CNS and with UACC-62 melanoma was greater than 100 µM each time.
Consider `COc1ccc2c(c1[N+](=O)[O-])CC[C@@H]1[C@@H]2CC[C@]2(C)C(=O)CC[C@@H]12`, for which the GI50 with A549 NSCLC was greater than 751 µM; in the assay on CCRF-CEM leukemia, greater than 1000 µM; in the assay on COLO 205 colon, greater than 1000 µM; in the assay with MDA-MB-435 it was greater than 1000 µM; in the assay with NCI-H226 lung, 494 µM; with OVCAR-5 ovarian, greater than 1000 µM. Further, the GI50 was 413 µM in the assay on SK-OV-3 ovarian, 983 µM in the assay with SN12C renal, 457 µM with SNB-19 CNS and 387 µM in the assay with UACC-62 melanoma. Also, the TGI in the assay on A549 NSCLC, in the assay on MDA-MB-435, in the assay on OVCAR-5 ovarian and in the assay on SN12C renal was greater than 1000 µM in each case.
`O=C(Nc1ccc(Nc2ccc3c(c2)C(=O)c2ccccc2C3=O)c2c1C(=O)c1ccccc1C2=O)c1ccccc1`: the TGI with A549 NSCLC is greater than 100 µM; with CCRF-CEM leukemia it was greater than 72.8 µM; in the assay on COLO 205 colon, greater than 100 µM; in the assay with MDA-MB-435, greater than 100 µM; with NCI-H226 lung it was greater than 100 µM; in the assay with OVCAR-5 ovarian it was greater than 100 µM. Also, the TGI in the assay on SK-OV-3 ovarian, in the assay on SN12C renal, in the assay with SNB-19 CNS and with UACC-62 melanoma was greater than 100 µM in each case.
With `CN1CCC2(CC1)C(=O)Nc1cc(NC(=O)c3ccc4c(c3)C[C@@H]3C(C)(C)[C@H](O)[C@H](F)C[C@@]3(C)O4)ccc12`, the GI50 with A549 NSCLC is 2.74 µM; in the assay with CCRF-CEM leukemia, 0.092 µM; in the assay with COLO 205 colon, 1.84 µM; in the assay on MDA-MB-435, 1.31 µM; with NCI-H226 lung, 14 µM; in the assay on OVCAR-5 ovarian it was 12.3 µM. Moreover, the GI50 in the assay with SK-OV-3 ovarian is 1.71 µM; in the assay with SN12C renal it was 13.2 µM; with SNB-19 CNS, 1.97 µM; in the assay with UACC-62 melanoma it was 0.405 µM. Further, the TGI was 37.2 µM in the assay with A549 NSCLC; greater than 100 µM in the assay with CCRF-CEM leukemia; 7.36 µM in the assay with COLO 205 colon; 13 µM with MDA-MB-435; 49.3 µM with NCI-H226 lung; greater than 100 µM with OVCAR-5 ovarian. For the same compound, the TGI is 27.3 µM in the assay with SK-OV-3 ovarian, greater than 100 µM in the assay with SN12C renal, 22 µM in the assay with SNB-19 CNS and 5.13 µM in the assay with UACC-62 melanoma.
With `O=C(Nc1ccccc1/C=C/c1n[nH]c2ccccc12)c1ccccc1`, the GI50 with A549 NSCLC was 2.47 µM; in the assay with CCRF-CEM leukemia, 4.05 µM; with COLO 205 colon, 1.71 µM; in the assay with MDA-MB-435, 1.97 µM; in the assay with NCI-H226 lung, 1.09 µM; in the assay with OVCAR-5 ovarian it was 1.92 µM. Also, the GI50 with SK-OV-3 ovarian was 10.9 µM; in the assay on SN12C renal it was 2 µM; in the assay on SNB-19 CNS it was 5.93 µM; in the assay on UACC-62 melanoma, 2.88 µM. The TGI in the assay on A549 NSCLC stood at 13.6 µM; in the assay on CCRF-CEM leukemia, 22.3 µM; in the assay on COLO 205 colon it was 3.6 µM; in the assay with MDA-MB-435, 13.5 µM; in the assay on NCI-H226 lung it was 11.5 µM; with OVCAR-5 ovarian, 12.9 µM. The TGI with SK-OV-3 ovarian was found to be 22.8 µM; in the assay on SN12C renal, 5.4 µM; with SNB-19 CNS, 22.5 µM; with UACC-62 melanoma it was 13 µM.
